For one compound, melting point results are on record in patent US20020115669A1 (published 2002).

The structures appear in SMILES notation.

The melting point is the temperature, or range, at which the solid turns liquid. For the compound `CC(=O)NC[C@H]1CN(c2ccc(/C=C(\Br)c3ccc(C(C)=O)s3)c(F)c2)C(=O)O1`, the melting point is 187 to 190 °C (dec.).
